Measured values from patent US20230373930A1, “AMINOIMIDAZOLE FPR2 AGONISTS” (BRISTOL-MYERS SQUIBB COMPANY, priority 2020, published 2023).

Assays:
human FPR2 = molecular target: T1, human FPR2 (Homo sapiens, UniProt P25090); test: FPR2 cyclic adenosine monophosphate (cAMP) assay; format: cell-based; conditions: CHO cells overexpressing human FPR2; forskolin 5 μM; inhibition of cAMP production; HTRF; read-out: hFPR2 cAMP2 EC50
T1 sequence (P25090 1-351): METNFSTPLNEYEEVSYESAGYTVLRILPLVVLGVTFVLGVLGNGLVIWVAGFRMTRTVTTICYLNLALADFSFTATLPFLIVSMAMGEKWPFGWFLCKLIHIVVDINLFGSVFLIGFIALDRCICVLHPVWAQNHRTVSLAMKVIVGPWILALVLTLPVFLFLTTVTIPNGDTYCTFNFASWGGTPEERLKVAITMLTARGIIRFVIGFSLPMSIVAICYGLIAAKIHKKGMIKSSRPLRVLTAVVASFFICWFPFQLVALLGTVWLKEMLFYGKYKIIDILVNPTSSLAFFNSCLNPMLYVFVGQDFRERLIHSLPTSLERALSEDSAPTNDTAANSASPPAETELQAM
Protocol: (§1) FPR2 and FPR1 Cyclic Adenosine Monophosphate (cAMP) Assays. A mixture of forskolin (5 μM final for FPR2 or 10 μM final for FPR1) and IBMX (200 μM final) were added to 384-well Proxiplates (Perkin-Elmer) pre-dotted with test compounds in DMSO (1% final) at final concentrations in the range of 0.020 nM to 100 μM. Chinese Hamster Ovary cells (CHO) overexpressing human FPR1 or human FPR2 receptors were cultured in F-12 (Ham's) medium supplemented with 10% qualified FBS, 250 μg/ml zeocin and 300 μg/ml hygromycin (Life Technologies). Reactions were initiated by adding 2,000 human FPR2 cells per well or 4,000 human FPR1 cells per well in Dulbecco's PBS (with calcium and magnesium) (Life Technologies) supplemented with 0.1% BSA (Perkin-Elmer). The reaction mixtures were incubated for 30 min at room temperature. The level of intracellular cAMP was determined using the HTRF HiRange cAMP assay reagent kit (Cisbio) according to manufacturer's instruction. Solutions of cryptate conjugated anti-cAMP and d2 flurorophore-labelled cAMP were made in a supplied lysis buffer separately. Upon completion of the reaction, the cells were lysed with equal volume of the d2-cAMP solution and anti-cAMP solution. After a 1-h room temperature incubation, time-resolved fluorescence intensity was measured using the Envision (Perkin-Elmer) at 400 nm excitation and dual emission at 590 nm and 665 nm. A calibration curve was constructed with an external cAMP standard at concentrations ranging from 1 μM to 0.1 μM by plotting the fluorescent intensity ratio from 665 nm emission to the intensity from the 590 nm emission against cAMP concentrations. The potency and activity of a compound to inhibit cAMP production was then determined by fitting to a 4-parametric logistic equation from a plot of cAMP level versus compound concentrations.

human FPR1 = molecular target: T2, human FPR1 (Homo sapiens, UniProt P21462); test: FPR1 cyclic adenosine monophosphate (cAMP) assay; format: cell-based; conditions: CHO cells overexpressing human FPR1; forskolin 10 μM; inhibition of cAMP production; HTRF; read-out: hFPR1 cAMP2 EC50
T2 sequence (P21462 1-350): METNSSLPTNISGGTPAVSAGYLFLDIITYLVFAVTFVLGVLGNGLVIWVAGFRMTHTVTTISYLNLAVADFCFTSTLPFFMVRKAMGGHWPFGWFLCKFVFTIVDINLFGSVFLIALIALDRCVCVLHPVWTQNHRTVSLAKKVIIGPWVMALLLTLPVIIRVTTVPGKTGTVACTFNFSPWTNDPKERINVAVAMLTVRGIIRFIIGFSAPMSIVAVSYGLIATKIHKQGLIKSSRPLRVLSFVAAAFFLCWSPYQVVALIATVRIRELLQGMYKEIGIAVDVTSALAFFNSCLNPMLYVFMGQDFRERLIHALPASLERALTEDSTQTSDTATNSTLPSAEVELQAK
Protocol: as §1

| EC50 (human FPR2) | EC50 (human FPR1) | SMILES |
| --- | --- | --- |
| 15 nM | 450 nM | COc1cc(F)c(-n2cc(-c3cccc(Cl)c3)nc2NC(=O)c2ccc(OC(F)F)cc2)c(F)c1 [Example 12, N-[4-(3-Chlorophenyl)-1-(2,6-difluoro-4-methoxyphenyl)-1H-imidazol-2-yl]-4-(difluoromethoxy)benzamide] |
| 53 nM | 550 nM | COc1cc(F)c(-n2c(NC(=O)c3ccc(OC(F)F)cc3)nc(-c3ccc(Cl)cc3)c2C)c(F)c1 [Example 13, N-[4-(4-Chlorophenyl)-1-(2,6-difluoro-4 methoxyphenyl)-5-methyl-1H-imidazol-2-yl]-4-(difluoromethoxy)benzamide] |
| 39 nM | 160 nM | COc1ccc(-c2cn(-c3c(F)cc(OC)cc3F)c(NC(=O)c3ccc(OC(F)F)cc3)n2)cc1 [Example 14, N-[1-(2,6-Difluoro-4-methoxyphenyl)-4-(4-methoxyphenyl)-1H-imidazol-2-yl]-4-(difluoromethoxy)benzamide] |
| 23 nM | 130 nM | COc1cc(F)c(-n2cc(-c3ccc(C)cc3)nc2NC(=O)c2ccc(OC(F)F)cc2)c(F)c1 [Example 15, N-[1-(2,6-Difluoro-4-methoxyphenyl)-4-(4-methylphenyl)-1H-imidazol-2-yl]-4-(difluoromethoxy)benzamide] |
| 27 nM | 230 nM | COc1cc(F)c(-n2cc(-c3ccc(C#N)cc3)nc2NC(=O)c2ccc(OC(F)F)cc2)c(F)c1 [Example 16, N-[4-(4-Cyanophenyl)-1-(2,6-difluoro-4-methoxyphenyl)-1H-imidazol-2-yl]-4-(difluoromethoxy)benzamide] |
| 5 nM | 46 nM | COc1cc(F)c(-n2cc(-c3cccc(C#N)c3)nc2NC(=O)c2ccc(OC(F)F)cc2)c(F)c1 [Example 17, N-[4-(3-Cyanophenyl)-1-(2,6-difluoro-4-methoxyphenyl)-1H-imidazol-2-yl]-4-(difluoromethoxy)benzamide] |
| 51 nM | 400 nM | COc1cc(F)c(-n2cc(-c3ccc(Cl)c(Cl)c3)nc2NC(=O)c2ccc(OC(F)F)cc2)c(F)c1 [Example 18, N-[4-(3,4-Dichlorophenyl)-1-(2,6-difluoro-4-methoxyphenyl)-1H-imidazol-2-yl]-4-(difluoromethoxy)benzamide] |
| 28 nM | 93 nM | COc1ccc(-n2cc(-c3ccc4c(c3)CCO4)nc2NC(=O)c2ccc(OC(F)F)cc2)cc1 [Example 19, 4-(Difluoromethoxy)-N-[4-(2,3-dihydro-1-benzofuran-5-yl)-1-(4-methoxyphenyl)-1H-imidazol-2-yl]benzamide] |
| 5 nM | 19 nM | COc1ccc(-n2cc(-c3ccnc(Cl)c3)nc2NC(=O)c2ccc(OC(F)F)cc2)cc1 [Example 20, N-[4-(2-Chloropyridin-4-yl)-1-(4-methoxyphenyl)-1H-imidazol-2-yl]-4-(difluoromethoxy)benzamide] |
| 29 nM | 76 nM | COc1ccc(-n2cc(-c3ccc(F)cc3F)nc2NC(=O)c2ccc(OC(F)F)cc2)cc1 [Example 21, 4-(Difluoromethoxy)-N-[4-(2,4-difluorophenyl)-1-(4-methoxyphenyl)-1H-imidazol-2-yl]benzamide] |
| 86 nM | 140 nM | COc1ccc(-n2cc(-c3ccc4sccc4c3)nc2NC(=O)c2ccc(OC(F)F)cc2)cc1 [Example 22, N-[4-(1-Benzothiophen-5-yl)-1-(4-methoxyphenyl)-1H-imidazol-2-yl]-4-(difluoromethoxy)benzamide] |
| 28 nM | 44 nM | COc1ccc(-n2cc(-c3nc4ccccc4s3)nc2NC(=O)c2ccc(OC(F)F)cc2)cc1 [Example 23, N-[4-(1,3-Benzothiazol-2-yl)-1-(4-methoxyphenyl)-1H-imidazol-2-yl]-4-(difluoromethoxy)benzamide] |
| 9 nM | 110 nM | COc1ccc(-n2cc(-c3nccs3)nc2NC(=O)c2ccc(OC(F)F)cc2)cc1 [Example 24, 4-(Difluoromethoxy)-N-[1-(4-methoxyphenyl)-4-(1,3-thiazol-2-yl)-1H-imidazol-2-yl]benzamide] |

Second part, the molecule before the results:

| SMILES | EC50 (human FPR2) | EC50 (human FPR1) |
| --- | --- | --- |
| COc1cc(F)c(-n2cc(-c3ccccc3)nc2NC(=O)c2ccc(OC(F)F)cc2)c(F)c1 [Example 1, N-[1-(2,6-Difluoro-4-methoxyphenyl)-4-phenyl-1H-imidazol-2-yl]-4-(difluoromethoxy)benzamide] | 4 nM | 200 nM |
| COc1ccc(-n2cc(-c3ccccc3)nc2NC(=O)c2ccc(OC(F)F)cc2)cc1 [Example 2, 4-(Difluoromethoxy)-N-[1-(4-methoxyphenyl)-4-phenyl-1H-imidazol-2-yl]benzamide] | 3 nM | 38 nM |
| COc1cccc(-c2cn(-c3c(F)cc(OC)cc3F)c(NC(=O)c3ccc(OC(F)F)cc3)n2)c1 [Example 3, N-[1-(2,6-Difluoro-4-methoxyphenyl)-4-(3-methoxyphenyl)-1H-imidazol-2-yl]-4-(difluoromethoxy)benzamide] | 8 nM | 88 nM |
| COc1cc(F)c(-n2cc(-c3ccc(F)cc3)nc2NC(=O)c2ccc(OC(F)F)cc2)c(F)c1 [Example 4, N-[1-(2,6-Difluoro-4-methoxyphenyl)-4-(4-fluorophenyl)-1H-imidazol-2-yl]-4-(difluoromethoxy)benzamide] | 11 nM | 400 nM |
| COc1cc(F)c(-n2cc(-c3ccc(Cl)c(C)c3)nc2NC(=O)c2ccc(OC(F)F)cc2)c(F)c1 [Example 5, N-[4-(4-Chloro-3-methylphenyl)-1-(2,6-difluoro-4-methoxyphenyl)-1H-imidazol-2-yl]-4-(difluoromethoxy)benzamide] | 47 nM | 140 nM |
| COc1cc(F)c(-n2cc(-c3ccc(C(F)(F)F)cc3)nc2NC(=O)c2ccc(OC(F)F)cc2)c(F)c1 [Example 6, N-[1-(2,6-Difluoro-4-methoxyphenyl)-4-[4-(trifluoromethyl)phenyl]-1H-imidazol-2-yl]-4-(difluoromethoxy)benzamide] | 76 nM | 120 nM |
| COc1cc(F)c(-n2cc(-c3ccc(OC(F)F)cc3)nc2NC(=O)c2ccc(OC(F)F)cc2)c(F)c1 [Example 7, N-[1-(2,6-Difluoro-4-methoxyphenyl)-4-[4-(difluoromethoxy)phenyl]-1H-imidazol-2-yl]-4-(difluoromethoxy)benzamide] | 33 nM | 190 nM |
| COc1cc(F)c(-n2c(NC(=O)c3ccc(OC(F)F)cc3)nc(-c3ccccc3)c2C)c(F)c1 [Example 8, N-[1-(2,6-Difluoro-4-methoxyphenyl)-5-methyl-4-phenyl-1H-imidazol-2-yl]-4-(difluoromethoxy)benzamide] | 8 nM | 230 nM |
| COc1cc(F)c(-n2cc(-c3ccc4ccccc4c3)nc2NC(=O)c2ccc(OC(F)F)cc2)c(F)c1 [Example 9, N-[1-(2,6-Difluoro-4-methoxyphenyl)-4-(naphthalen-2-yl)-1H-imidazol-2-yl]-4-(difluoromethoxy)benzamide] | 220 nM | 460 nM |
| COc1cc(F)c(-n2cc(-c3cccc(F)c3)nc2NC(=O)c2ccc(OC(F)F)cc2)c(F)c1 [Example 10, N-[1-(2,6-Difluoro-4-methoxyphenyl)-4-(3-fluorophenyl)-1H-imidazol-2-yl]-4-(difluoromethoxy)benzamide] | 7 nM | 200 nM |
| COc1cc(F)c(-n2cc(-c3ccc(Cl)cc3)nc2NC(=O)c2ccc(OC(F)F)cc2)c(F)c1 [Example 11, N-[4-(4-Chlorophenyl)-1-(2,6-difluoro-4-methoxyphenyl)-1H-imidazol-2-yl]-4-(difluoromethoxy)benzamide] | 24 nM | 140 nM |
